Consider eight molecules from US9771341B2, “Piperazine carbamates and methods of making and using same” (Abide Therapeutics, Inc., priority 2015, dated 2017).

Read-outs that look alike come from different tables or passages of the source.

What all share (assay type): biochemical
For one assay, the target named is T1, MAGL (Mus musculus, UniProt O35678).
T1 construct: Proteomes (mouse brain membrane fraction or cell lysates); from tissue; host or cells: mouse brain membrane fraction (or unspecified cell lysates)
T1 sequence (O35678 1-303): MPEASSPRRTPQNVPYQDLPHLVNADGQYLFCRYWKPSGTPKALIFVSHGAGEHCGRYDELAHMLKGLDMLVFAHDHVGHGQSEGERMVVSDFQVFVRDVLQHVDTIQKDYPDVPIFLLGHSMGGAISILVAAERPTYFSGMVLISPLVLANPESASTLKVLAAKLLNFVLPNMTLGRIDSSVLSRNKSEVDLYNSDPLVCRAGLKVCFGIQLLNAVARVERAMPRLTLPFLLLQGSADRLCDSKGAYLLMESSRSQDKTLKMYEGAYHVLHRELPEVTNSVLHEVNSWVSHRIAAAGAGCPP
Kind of assay: In vitro competitive activity-based protein profiling (mouse), MAGL. The following applies: for inhibition at 1 µM: read-out: % Inhibition at 1 μM MAGL; for IC50: mouse brain membrane fraction or cell lysates, 30 min preincubation at 37° C, FP-Rh probe. The method, then: (§1) In Vitro Competitive Activity-Based Protein Profiling (Mouse).
(§2) Proteomes (mouse brain membrane fraction or cell lysates) (50 μL, 1.0 mg/mL total protein concentration) were preincubated with varying concentrations of inhibitors at 37° C. After 30 min, FP-Rh (1.0 μL, 50 μM in DMSO) was added and the mixture was incubated for another 30 min at 37° C. Reactions were quenched with SDS loading buffer (50 μL-4×) and run on SDS-PAGE.

For a further assay, the target named is T2, FAAH (Mus musculus, UniProt O08914).
T2 construct: Proteomes (mouse brain membrane fraction or cell lysates); from tissue; host or cells: mouse brain membrane fraction (or unspecified cell lysates)
T2 sequence (O08914 1-579): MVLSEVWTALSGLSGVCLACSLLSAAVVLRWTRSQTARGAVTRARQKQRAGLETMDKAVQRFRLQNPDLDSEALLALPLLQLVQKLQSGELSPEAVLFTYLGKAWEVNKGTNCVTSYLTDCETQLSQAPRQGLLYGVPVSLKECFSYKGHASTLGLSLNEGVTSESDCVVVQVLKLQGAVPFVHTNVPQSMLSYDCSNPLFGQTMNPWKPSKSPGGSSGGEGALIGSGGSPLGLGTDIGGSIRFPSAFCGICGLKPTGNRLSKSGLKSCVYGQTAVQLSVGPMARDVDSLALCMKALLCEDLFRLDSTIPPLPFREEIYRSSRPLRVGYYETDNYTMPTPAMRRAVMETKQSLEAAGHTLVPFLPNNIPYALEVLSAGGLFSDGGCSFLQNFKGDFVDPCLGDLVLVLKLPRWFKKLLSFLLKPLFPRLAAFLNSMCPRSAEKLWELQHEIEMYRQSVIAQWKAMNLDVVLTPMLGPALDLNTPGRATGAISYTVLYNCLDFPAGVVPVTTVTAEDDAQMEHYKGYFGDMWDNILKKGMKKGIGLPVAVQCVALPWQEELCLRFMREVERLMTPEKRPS
Description: In vitro competitive activity-based protein profiling (mouse), FAAH. The following applies: for inhibition at 1 µM: mouse proteome, in vitro; for IC50: mouse brain membrane fraction or cell lysates, 30 min preincubation at 37° C, FP-Rh probe. How it is done:
as §1
Proteomes (mouse brain membrane fraction or cell lysates) (50 μL, 1.0 mg/mL total protein concentration) were preincubated with varying concentrations of inhibitors at 37° C. After 30 min, FP-Rh (1.0 μL, 50 μM in DMSO) was added and the mixture was incubated for another 30 min at 37° C. Reactions were quenched with SDS loading buffer (50 μL-4×) and run on SDS-PAGE. Following gel imaging, serine hydrolase activity was determined by measuring fluorescent intensity of gel bands corresponding to MAGL, ABHD6 and FAAH using ImageJ 1.43u software.

In another assay the target is T3, ABHD6 (Mus musculus, UniProt Q8R2Y0).
T3 construct: Proteomes (mouse brain membrane fraction or cell lysates); from tissue; host or cells: mouse brain membrane fraction (or unspecified cell lysates)
T3 sequence (Q8R2Y0 1-336): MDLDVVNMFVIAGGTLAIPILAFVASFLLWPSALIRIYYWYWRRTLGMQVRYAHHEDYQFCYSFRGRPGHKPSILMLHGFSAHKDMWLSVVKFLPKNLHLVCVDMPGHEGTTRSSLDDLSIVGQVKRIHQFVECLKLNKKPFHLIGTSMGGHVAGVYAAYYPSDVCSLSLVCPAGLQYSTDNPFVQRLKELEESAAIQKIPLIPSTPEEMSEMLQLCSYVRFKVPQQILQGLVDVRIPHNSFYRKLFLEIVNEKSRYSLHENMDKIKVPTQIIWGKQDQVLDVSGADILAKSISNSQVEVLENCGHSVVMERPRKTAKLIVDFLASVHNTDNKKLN
Description: In vitro competitive activity-based protein profiling (mouse), ABHD6. The following applies: for inhibition at 1 µM: read-out: % Inhibition at 1 μM ABHD6; for IC50: mouse brain membrane fraction or cell lysates, 30 min preincubation at 37° C, FP-Rh probe. How it is done:
as §1, §2

Turning to `CS(=O)(=O)N[C@@H]1CCN(c2cccc(C(F)(F)F)c2CN2CCN(C(=O)OC(C(F)(F)F)C(F)(F)F)CC2)C1` [Example 47, 1,1,1,3,3,3-hexafluoropropan-2-yl (R)-4-(2-(3-(methylsulfonamido)pyrrolidin-1-yl)-6-(trifluoromethyl)benzyl)piperazine-1-carboxylate], the inhibition – broadly, the percentage by which the read-out fell short of the control – at 1 µM on MAGL (1 μM, mouse proteome, in vitro) was above 75%; at FAAH it was below 25%; at ABHD6 (1 μM, mouse proteome, in vitro), below 25%.

As to `CS(=O)(=O)N[C@H]1CCN(c2cccc(C(F)(F)F)c2CN2CCN(C(=O)OC(C(F)(F)F)C(F)(F)F)CC2)C1` [Example 48, 1,1,1,3,3,3-hexafluoropropan-2-yl (S)-4-(2-(3-(methylsulfonamido)pyrrolidin-1-yl)-6-(trifluoromethyl)benzyl)piperazine-1-carboxylate], the inhibition at 1 µM on MAGL (1 μM, mouse proteome, in vitro) is 25 to 75%; on FAAH, below 25%; on ABHD6 (1 μM, mouse proteome, in vitro) it was below 25%.

`O=C(OC(C(F)(F)F)C(F)(F)F)N1CCN(Cc2c(N3C4CCC3COC4)cccc2C(F)(F)F)CC1` [Example 49, 1,1,1,3,3,3-hexafluoropropan-2-yl 4-(2-(3-oxa-8-azabicyclo[3.2.1]octan-8-yl)-6-(trifluoromethyl)benzyl)piperazine-1-carboxylate]: the inhibition at 1 µM on MAGL was 25 to 75%; at FAAH it was below 25%; on ABHD6, below 25%.

Consider `O=C(OC(C(F)(F)F)C(F)(F)F)N1CCN(Cc2c(N3CC4CCC(C3)O4)cccc2C(F)(F)F)CC1` [Example 50, 1,1,1,3,3,3-hexafluoropropan-2-yl 4-(2-(8-oxa-3-azabicyclo[3.2.1]octan-3-yl)-6-(trifluoromethyl)benzyl)piperazine-1-carboxylate], for which the inhibition at 1 µM at MAGL (1 μM, mouse proteome, in vitro) was below 25%; at FAAH, below 25%; at ABHD6 (1 μM, mouse proteome, in vitro), below 25%.

With `Cc1c(CN2CCN(C(=O)OC(C(F)(F)F)C(F)(F)F)CC2)cccc1N1CCC(NS(C)(=O)=O)CC1` [Example 52, 1,1,1,3,3,3-hexafluoropropan-2-yl 4-(2-methyl-3-(4-(methylsulfonamido)piperidin-1-yl)benzyl)piperazine-1-carboxylate], the inhibition at 1 µM is above 75% at MAGL (1 μM, mouse proteome, in vitro); below 25% on FAAH; above 75% on ABHD6 (1 μM, mouse proteome, in vitro). The IC50 – broadly, the concentration needed to halve the response being measured – at MAGL was below 100 nM; at FAAH it was above 1000 nM; on ABHD6, 100 to 1000 nM.

For the molecule `O=C(O)C1CCN(c2cc(Cl)ccc2CN2CCN(C(=O)OC(C(F)(F)F)C(F)(F)F)CC2)CC1` [Example 62, 1-(5-chloro-2-((4-(((1,1,1,3,3,3-hexafluoropropan-2-yl)oxy)carbonyl)piperazin-1-yl)methyl)phenyl)piperidine-4-carboxylic acid], the inhibition at 1 µM is above 75% on MAGL (1 μM, mouse proteome, in vitro); below 25% on FAAH; below 25% on ABHD6 (1 μM, mouse proteome, in vitro). Further, the results for the IC50 on MAGL, at FAAH and on ABHD6 were 100 to 1000 nM, above 1000 nM and above 1000 nM, respectively.

Turning to `O=C(O)C1CCN(c2cc(C(F)(F)F)ccc2CN2CCN(C(=O)OC(C(F)(F)F)C(F)(F)F)CC2)CC1` [Example 63, 1-(2-((4-(((1,1,1,3,3,3-hexafluoropropan-2-yl)oxy)carbonyl)piperazin-1-yl)methyl)-5-(trifluoromethyl)phenyl)piperidine-4-carboxylic acid], the inhibition at 1 µM on MAGL (1 μM, mouse proteome, in vitro) is above 75%; at FAAH it was below 25%; on ABHD6 (1 μM, mouse proteome, in vitro) it was above 75%. Besides, the concentration for half-maximal inhibition (IC50) on MAGL was below 100 nM; on FAAH, above 1000 nM; on ABHD6, 100 to 1000 nM.

Regarding `O=C(OC(C(F)(F)F)C(F)(F)F)N1CCN(Cc2ccc(Cl)cc2N2CC3CN(C4CC4)CC3C2)CC1` (stereo not drawn) [Example 64, 1,1,1,3,3,3-hexafluoropropan-2-yl 4-(4-chloro-2-(5-cyclopropylhexahydropyrrolo[3,4-c]pyrrol-2(1H)-yl)benzyl)piperazine-1-carboxylate], the inhibition at 1 µM at MAGL (1 μM, mouse proteome, in vitro) was above 75%; at FAAH it was below 25%; on ABHD6 (1 μM, mouse proteome, in vitro), below 25%. Also, the half-maximal inhibitory concentration (IC50) on MAGL is 100 to 1000 nM; on FAAH, above 1000 nM; on ABHD6, above 1000 nM.
